Data reported in EPA's ToxValDB 9.5 (doi:10.2903/j.efsa.2010.1669).
In brackets after ≈: the same amount, converted by molar mass.

Columns and labels:
Aphidius rhopalosiphi = assay: LR50; higher = less toxic; settings: not reported; mortality
Tagia sp. = settings: acute; duration: 14 days; mortality
Oryctolagus sp. = settings: developmental; development
Rattus norvegicus = settings: for NOAEL: body weight
Colinus virginianus = settings: for LD50: acute, oral, mortality
Canidae = settings: oral, Dog Other, organ weight
Daphnia magna = settings: chronic/long-term; duration: 21 days; reproduction
Apis mellifera = settings: acute; duration: 48 hours; dermal; mortality

`CCCC(=NOCC)C1=C(O)CC(C2CCCSC2)CC1=O` (stereo unspecified) [Cycloxydim] was tested, and the LR50 (Aphidius rhopalosiphi) was 90.2 g/ha, the LC50 (Tagia sp.) was greater than 1000 mg/kg and the NOAEL (Oryctolagus sp.) was 200 mg/kg-day. It also gave an LC50 (Oncorhynchus mykiss; acute, duration: 96 hours, mortality) of 220 µg/mL (≈ 676 µM), an NOEC (Oncorhynchus mykiss; chronic/long-term, duration: 28 days, growth) of 21.5 mg/L and an LD50 (Rattus norvegicus; acute, oral, mortality) of 3830 mg/kg-day. For the same compound, the NOAEL (Rattus norvegicus; chronic, duration: 18 months) was 7 mg/kg-day, the NOAEL (Rattus norvegicus; chronic, duration: 24 months) was 7 mg/kg-day and the NOAEL (Rattus norvegicus; reproduction developmental) was 9.7 mg/kg-day. For the same compound, the LD50 (Colinus virginianus; diet) was 497 mg/kg-day, the LD50 (Colinus virginianus) was greater than 2000 mg/kg-day and the NOEC (Colinus virginianus; reproduction developmental) was 65.4 mg/kg-day. It also gave an NOAEL (Canidae; chronic, duration: 1 years) of 10 mg/kg-day, an NOAEL (Canidae; subchronic, duration: 3 months) of 10 mg/kg-day and an NOEC (Daphnia magna) of 62.5 mg/L. The LD50 (Apis mellifera) was greater than 100 µg/piece.
